Source: patent publication US6737383B1, “Herbicidal oxadiazolidines” (priority 1999, dated 2004)

Assays:
morningglory = assay: Test B pre/postemergence morningglory; assay type: in vivo, Ipomoea hederacea; details: for Morningglory plant response rating (0 to 10 scale): 0 is no effect
How it was run: (§1)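 Test chemicals in a non-phytotoxic solvent mixture with surfactant were sprayed preemergence onto planted seeds and postemergence onto plants 2 to 18 cm tall (1- to 4-leaf stage). After twelve to sixteen days in a greenhouse, injury was visually rated against untreated controls from 0 (no effect) to 10 (complete control).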

rape = assay: Test B pre/postemergence rape; assay type: in vivo, Brassica napus; details: for Rape plant response rating (0 to 10 scale): 0 is no effect
How it was run: as §1

wheat = assay: Test B pre/postemergence wheat; assay type: in vivo, Triticum aestivum; details: for Wheat plant response rating (0 to 10 scale): 0 is no effect
How it was run: as §1

duck salad = assay: Test B flood test duck salad; assay type: in vivo, Heteranthera limosa
How it was run: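 Each value is a visual injury score relative to controls, with 10 meaning complete control and 0 no effect. Evaluation took place twelve to sixteen days after the 2-leaf-stage plants were treated and kept in the greenhouse.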

[1] = Postemergence, Rate 125 g/ha, scale of 0 to 10 where 0 is no effect and 10 is complete control
[2] = Postemergence, Rate 250 g/ha, scale 0 to 10, 0 no effect, 10 complete control
[3] = Preemergence, Rate 62 g/ha, scale 0 to 10 (0 no effect, 10 complete control)
[4] = Preemergence, Rate 125 g/ha, scale 0 to 10 (0 no effect, 10 complete control)
[5] = Preemergence, Rate 250 g/ha, scale of 0 to 10 where 0 is no effect and 10 is complete control
[6] = Preemergence, Rate 500 g/ha, scale 0 to 10 (0 no effect, 10 complete control)
[7] = Rate 62 g/ha, Postemergence, scale of 0 to 10 where 0 is no effect and 10 is complete control
[8] = Rate 500 g/ha, Postemergence, scale 0 to 10, 0 no effect, 10 complete control
[9] = Preemergence, Rate 125 g/ha, 10 is complete control
[10] = Rate 250 g/ha, Postemergence, scale 0 to 10, 0 is no effect, 10 is complete control
[11] = Postemergence (flood test species), Rate 125 g/ha, scale of 0 to 10 where 0 is no effect and 10 is complete control
[12] = Rate 62 g/ha, Postemergence section, flood test species, scale of 0 to 10 where 0 is no effect and 10 is complete control
[13] = Rate 250 g/ha, headed Pre-emergence (flood test species), scale 0 to 10 (0 no effect, 10 complete control)
[14] = Rate 500 g/ha, headed Pre-emergence (flood test species), scale 0 to 10 (0 no effect, 10 complete control)
[15] = Rate 500 g/ha, listed under Postemergence (flood test species), scale 0 to 10, 0 no effect, 10 complete control
[16] = Rate 1000 g/ha, Pre-emergence (as headed), scale 0 to 10
[17] = Rate 2000 g/ha, Pre-emergence (as headed), scale 0 to 10
[18] = Preemergence, Rate 250 g/ha, scale 0 to 10, 0 is no effect, 10 is complete control
[19] = Rate 250 g/ha, Postemergence (flood test), scale 0 to 10, 0 is no effect, 10 is complete control
[20] = Rate 500 g/ha, Postemergence, scale 0 to 10
[21] = Rate 500 g/ha, listed under Postemergence (flood test species), scale 0 to 10
[22] = Preemergence, Rate 62 g/ha, scale of 0 to 10 where 0 is no effect and 10 is complete control
[23] = Rate 125 g/ha, Postemergence, scale 0 to 10
[24] = Rate 62 g/ha, headed Pre-emergence (flood test species), scale 0 to 10 (0 no effect, 10 complete control)
[25] = Rate 125 g/ha, Pre-emergence, flood test species, scale 0 to 10 where 0 is no effect and 10 is complete control
[26] = Rate 250 g/ha, Pre-emergence, flood-test species, scale 0 to 10, 0 is no effect, 10 is complete control

| SMILES | Morningglory plant response rating (morningglory; [1]) | Morningglory plant response rating (morningglory; [3]) | Morningglory plant response rating (morningglory; [6]) | Morningglory plant response rating (morningglory; [7]) | Rape plant response rating (rape; [1]) | Rape plant response rating (rape; [3]) | Rape plant response rating (rape; [6]) | Rape plant response rating (rape; [7]) | Wheat plant response rating (wheat; [1]) | Wheat plant response rating (wheat; [3]) | Wheat plant response rating (0 to 10 scale) (wheat; [9]) | Wheat plant response rating (wheat; [6]) | Wheat plant response rating (wheat; [7]) | Plant response rating, Wheat (wheat; [10]) | Ducksalad plant response rating (duck salad; [11]) | Morningglory plant response rating (0 to 10 scale) (morningglory; [9]) | Morningglory plant response rating (morningglory; [18]) | Rape plant response rating (0 to 10 scale) (rape; [9]) | Rape plant response rating (rape; [18]) | Wheat plant response rating (wheat; [18]) | also measured |
| --- | --- | --- | --- | --- | --- | --- | --- | --- | --- | --- | --- | --- | --- | --- | --- | --- | --- | --- | --- | --- | --- |
| Cc1nn(C)c(Cl)c1-n1c(=O)on(C(=O)N(c2ccccc2)C(C)C)c1=O [Compound 121] | 6 | 0 | 0 | 5 | 0 | 0 | 0 | 0 | 0 | 0 | 0 | 3 | 0 | 0 | 0 | – | – | – | – | – | Morningglory plant response rating (morningglory; [2]): 6; Plant response rating, Morningglory (morningglory; [4]): 0; Plant response rating, Morningglory (morningglory; [5]): 0; Morningglory plant response rating (morningglory; [8]): 9; Rape plant response rating (rape; [2]): 2; Plant response rating, Rape (rape; [4]): 0; Plant response rating, Rape (rape; [5]): 0; Rape plant response rating (rape; [8]): 3; Plant response rating, Wheat (wheat; [5]): 0; Wheat plant response rating (wheat; [8]): 0; Ducksalad plant response rating (duck salad; [12]): 0; Ducksalad plant response rating (duck salad; [13]): 0; Plant response rating, Ducksalad (duck salad; [14]): 0; Ducksalad plant response rating (duck salad; [15]): 0; Ducksalad plant response rating (duck salad; [16]): 0; Ducksalad plant response rating (duck salad; [17]): 0; Ducksalad plant response rating (duck salad; flood test, listed under Postemergence, Rate 250 g/ha, scale 0 to 10, 0 no effect, 10 complete control): 0 |
| CC(C)N(C(=O)n1oc(=O)n(-c2ccnn2C)c1=O)c1ccc(F)cc1 [Compound 124] | 0 | 0 | 0 | 0 | 0 | 0 | 0 | 0 | 0 | 0 | 0 | 0 | 0 | 0 | 0 | 0 | 0 | 0 | 0 | 0 | Plant response rating, Morningglory (morningglory; [10]): 0; Morningglory plant response rating (morningglory; [8]): 2; Plant response rating, Rape (rape; [10]): 0; Rape plant response rating (rape; [8]): 0; Wheat plant response rating (wheat; [8]): 0; Ducksalad plant response rating (duck salad; [12]): 0; Plant response rating, Ducksalad (duck salad; [19]): 0; Ducksalad plant response rating (duck salad; [13]): 0; Plant response rating, Ducksalad (duck salad; [14]): 0; Ducksalad plant response rating (duck salad; [15]): 0; Ducksalad plant response rating (duck salad; [16]): 0; Ducksalad plant response rating (duck salad; [17]): 0 |
| CC(C)c1noc(C(C)C)c1-n1c(=O)on(C(=O)N(c2ccc(F)cc2)C(C)C)c1=O [Compound 135] | 1 | 0 | 0 | 0 | 0 | 0 | 0 | 0 | 0 | 0 | 0 | 0 | 0 | 0 | 0 | 0 | 0 | 0 | 0 | 0 | Plant response rating, Morningglory (morningglory; [10]): 1; Morningglory plant response rating (morningglory; [20]): 1; Plant response rating, Rape (rape; [10]): 0; Rape plant response rating (rape; [20]): 0; Wheat plant response rating (wheat; [20]): 0; Ducksalad plant response rating (duck salad; [12]): 0; Plant response rating, Ducksalad (duck salad; [19]): 0; Ducksalad plant response rating (duck salad; [21]): 0 |
| CC(C)N(C(=O)n1oc(=O)n(Cc2ccccc2Cl)c1=O)c1ccc(F)cc1 [Compound 140] | 8 | 0 | 0 | 4 | 0 | 0 | 0 | 0 | 0 | 0 | 0 | 0 | 0 | 0 | 0 | 0 | 0 | 0 | 0 | 0 | Plant response rating, Morningglory (morningglory; [10]): 8; Morningglory plant response rating (morningglory; [20]): 8; Plant response rating, Rape (rape; [10]): 1; Rape plant response rating (rape; [20]): 2; Wheat plant response rating (wheat; [20]): 0; Ducksalad plant response rating (duck salad; [12]): 0; Plant response rating, Ducksalad (duck salad; [19]): 0; Ducksalad plant response rating (duck salad; [21]): 0 |
| COc1nc(OC)nc(N(C(=O)n2oc(=O)n(-c3ccccc3C)c2=O)C(C)C)n1 [Compound 181] | – | – | 0 | 0 | – | – | 0 | 0 | – | – | – | 0 | – | – | – | 0 | 0 | 0 | 0 | 0 | Morningglory plant response rating (morningglory; [22]): 0; Morningglory plant response rating (morningglory; [23]): 0; Plant response rating (0 to 10; 0 is no effect, 10 is complete control), Morningglory (morningglory; Rate 250 g/ha, Postemergence): 0; Morningglory plant response rating (morningglory; [20]): 0; Rape plant response rating (rape; [22]): 0; Rape plant response rating (rape; [23]): 0; Plant response rating (0 to 10; 0 is no effect, 10 is complete control), Rape (rape; Rate 250 g/ha, Postemergence): 0; Rape plant response rating (rape; [20]): 0; Wheat plant response rating (wheat; [22]): 0; Wheat plant response rating (wheat; [23]): 0; Plant response rating (0 to 10; 0 is no effect, 10 is complete control), Wheat (wheat; Rate 250 g/ha, Postemergence): 0; Wheat plant response rating (wheat; [20]): 0; Ducksalad plant response rating (duck salad; [24]): 0; Ducksalad plant response rating (duck salad; [25]): 0; Ducksalad plant response rating (duck salad; [26]): 0; Plant response rating, Ducksalad (duck salad; [14]): 0 |
| Cc1ccccc1-n1c(=O)on(C(=O)N(c2ccc(Cl)cc2Cl)C(C)C)c1=O [Compound 185] | – | – | 0 | 1 | – | – | 0 | 0 | – | – | – | 0 | – | – | – | 0 | 0 | 0 | 0 | 0 | Morningglory plant response rating (morningglory; [22]): 0; Morningglory plant response rating (morningglory; [23]): 1; Plant response rating (0 to 10; 0 is no effect, 10 is complete control), Morningglory (morningglory; Rate 250 g/ha, Postemergence): 1; Morningglory plant response rating (morningglory; [20]): 2; Rape plant response rating (rape; [22]): 0; Rape plant response rating (rape; [23]): 0; Plant response rating (0 to 10; 0 is no effect, 10 is complete control), Rape (rape; Rate 250 g/ha, Postemergence): 0; Rape plant response rating (rape; [20]): 0; Wheat plant response rating (wheat; [22]): 0; Wheat plant response rating (wheat; [23]): 0; Plant response rating (0 to 10; 0 is no effect, 10 is complete control), Wheat (wheat; Rate 250 g/ha, Postemergence): 0; Ducksalad plant response rating (duck salad; [24]): 0; Ducksalad plant response rating (duck salad; [25]): 0; Ducksalad plant response rating (duck salad; [26]): 0; Plant response rating, Ducksalad (duck salad; [14]): 0 |
